Reference: PMC4134956 (Bioorganic & medicinal chemistry, 2014)

How the values were obtained:
[1] = cited from earlier work
[2] = format: in vivo, NSG male mouse; conditions: for preferential tumor localization compared to lung: single injection
[3] = single injection at 10 mg/kg; non-radioactive version; cited from earlier work
[4] = single i.p. injection 20 nmol per animal, 24 hours
[5] = single i.p. injection 20 nmol, 7 days

COc1cccc2c1C(=O)c1c(O)c3c(c(O)c1C2=O)C[C@@](O)(C(=O)CO)C[C@@H]3O[C@H]1C[C@H](N)[C@H](O)[C@H](C)O1 [doxorubicin]
liver levels higher than MCF7 xenograft levels ([1]; 2 hour timepoint): ~2 fold
tumor localization value ([1]; MCF7 xenograft, i.p. 1.6 mg/kg, up to 24 hours after single injection): about 1 mg/kg

CC(=O)N[C@H](CCNC(=O)c1cc(NC(=O)c2cc(NC(=O)c3cc(NC(=O)c4nccn4C)cn3C)cn2C)cn1C)C(=O)Nc1cn(C)c(C(=O)Nc2cc(C(=O)Nc3cc(C(=O)Nc4cc(C(=O)NCCCN(C)CCCN[14C](=O)c5cccc([14C](=O)O)c5)n(C)c4)n(C)c3)n(C)c2)n1 [compound 1, ImPyPyPy-(R)^α-NHAcγ-ImPyPyPy]
mean tumor concentration, multiple injection experiment ([2]; 3 injections days 1, 4, 7, 20 nmol i.p. each, harvest 24 h after last): 3.49 mg/kg
accumulation upon repeated injection in tumor and organs assessed ([2]; 3 injections over 7 days): Some twofold accumulation
enrichment in the tumor over all host tissues probed ([2]; 4 hour time point): some two-fold enrichment
liver concentration lower than that in tumors ([2]; 24 hours, p < 0.01): 29%
preferential tumor localization compared to lung ([2]; 24 hours): up to 12 fold
mean tumor-associated concentration ([2]; LNCaP tumor, single i.p. injection 20 nmol per animal, harvest 24 hours): 1.48 mg/kg
lung concentration [2, 4]: 0.12 mg/kg
kidney tissue level [2, 5]: 0.05 mg/kg
lung tissue level [2, 5]: 0.06 mg/kg
tumor tissue level [2, 5]: 0.45 mg/kg
liver toxicity [3]: not 1

CN(CCCNC(=O)c1cc(NC(=O)c2cc(NC(=O)c3cc(NC(=O)c4nc(NC(=O)[C@H](N)CCNC(=O)c5cc(NC(=O)c6cc(NC(=O)c7cc(NC(=O)c8nccn8C)cn7C)cn6C)cn5C)cn4C)cn3C)cn2C)cn1C)CCCN[14C](=O)c1cccc([14C](=O)O)c1 [compound 3]
lung levels relative to compound 1 ([2]; 24 hours): almost eightfold higher
tumor-associated levels compared with compound 1 ([2]; 24 hours): within error
host tissue levels compared with compound 1 ([2]; 24 hours, kidney, liver, lung): substantially higher levels
lung concentration [2, 4]: 0.93 mg/kg
liver toxicity [3]: resulted in liver toxicity

C[14C](=O)N[C@H](CCNC(=O)c1cc(NC(=O)c2cc(NC(=O)c3cc(NC(=O)c4nccn4C)cn3C)cn2C)cn1C)C(=O)Nc1cn(C)c(C(=O)Nc2cc(C(=O)Nc3cc(C(=O)Nc4cc(C(=O)NCCCN(C)CCCNC(=O)c5cccc(C(=O)O)c5)n(C)c4)n(C)c3)n(C)c2)n1 [compound 2]
mean tumor and host tissue values compared with compound 1 ([2]; 24 hours, differently placed C-14 label): within experimental error
preferential tumor localization compared to lung ([2]; 24 hours): up to 12 fold
